{"source": "paper PMC6332040", "about": "“Synthesis, Density Functional Theory (DFT), Urease Inhibition and Antimicrobial Activities of 5-Aryl Thiophenes Bearing Sulphonylacetamide Moieties” (Molecules, 2015)", "note": "Values joined by “and” are separate entries in the source; they are usually repeats but may differ in a detail not shown here. Equal entries are not always repeated."}
{"molecular_target": "Jack bean urease enzyme (Canavalia ensiformis, UniProt P07374)", "sequence (P07374 whole entry, looked up)": "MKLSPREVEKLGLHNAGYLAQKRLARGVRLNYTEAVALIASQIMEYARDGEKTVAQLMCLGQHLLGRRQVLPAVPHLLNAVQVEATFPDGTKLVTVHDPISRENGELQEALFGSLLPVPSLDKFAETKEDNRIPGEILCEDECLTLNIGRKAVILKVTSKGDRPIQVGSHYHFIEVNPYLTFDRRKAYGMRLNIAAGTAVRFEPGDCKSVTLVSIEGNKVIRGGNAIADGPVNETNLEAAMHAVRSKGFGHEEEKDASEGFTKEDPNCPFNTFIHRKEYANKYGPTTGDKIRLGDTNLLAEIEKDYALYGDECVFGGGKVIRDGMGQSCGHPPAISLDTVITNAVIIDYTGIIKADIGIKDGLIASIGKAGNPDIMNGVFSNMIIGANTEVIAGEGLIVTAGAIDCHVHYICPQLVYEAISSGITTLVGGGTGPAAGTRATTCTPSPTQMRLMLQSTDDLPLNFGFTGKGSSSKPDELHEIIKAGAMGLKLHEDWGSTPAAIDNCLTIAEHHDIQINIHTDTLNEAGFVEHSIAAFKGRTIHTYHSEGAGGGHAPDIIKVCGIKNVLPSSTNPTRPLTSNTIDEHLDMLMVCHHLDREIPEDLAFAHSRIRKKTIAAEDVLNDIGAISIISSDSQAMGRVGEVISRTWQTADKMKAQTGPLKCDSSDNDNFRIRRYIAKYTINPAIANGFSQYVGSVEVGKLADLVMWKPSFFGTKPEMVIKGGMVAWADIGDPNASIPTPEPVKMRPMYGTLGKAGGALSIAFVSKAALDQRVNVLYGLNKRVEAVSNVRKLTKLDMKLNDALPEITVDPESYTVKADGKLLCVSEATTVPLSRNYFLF", "experiment": "biochemical", "format": "biochemical", "details": "IC50, urease, Table 5 series (4a–d), pH 6.8", "protocol": "(§1) Urease is an enzyme which converts urea to ammonium carbonate and is used as a diagnostic tool to establish the presence of different pathogens in the urinary and gastrointestinal tract. The percentage activity values of urease enzyme of compounds 4a–d were measured at 50 µg/mL and 250 µg/mL (Table 5), whereas, for compounds 4e–g, the percentage activity values of urease enzyme were measured at 15, 40 and 80 µg/mL, respectively (Table 6).\n(§2) Jack bean urease enzyme (25 µL) was added in buffer solution (55 µL) containing 100 mM urea to prepare the stock solution. This mixture was then incubated with 5 µL (0.5 mM concentration) of the newly synthesized compounds for 15 min at 30 °C in 96-well plates. Anti-urease activity was resolved by knowing the production of ammonia using the indophenol method. Concisely, in each well, phenol reagent (45 µL, 0.005% w/v sodium nitroprusside and 1% w/v phenol) was added in addition to the alkali reagent (70 µL, NaOH 0.5% w/v and 0.1% NaOCl). After 50 min, the increase in absorbance was measured at 630 nm using a micro plate reader. All reactions were carried out in triplicate to obtained 200 µL final volume. The Softmax pro software was used to obtain the results as change in absorbance per minute. All assays were carried out at a specific pH of 6.8. The following formula was used to calculate the % inhibition: 100 − (OD test well/OD control) × 100(3)\n(§3) Thiourea was used as standard inhibitor of urease. The EZ-fit kinetic data base was used to determine IC50 values. In the case of colored compounds, sample blanks were also prepared. Absorbance of sample blanks was subtracted from the absorbance of samples to get the corrected absorbance of the samples. Corrected absorbance of sample was used to calculate % age inhibition."}
{"smiles": "CC(=O)NS(=O)(=O)c1ccc(-c2ccccc2)s1", "note": "[Compound 4a]", "IC50": "~136 µM and 136 µM"}
{"smiles": "CC(=O)NS(=O)(=O)c1ccc(-c2cc(C(F)(F)F)cc(C(F)(F)F)c2)s1", "note": "[Compound 4b, N-((5-(3,5-Bis(trifluoromethyl)phenyl)thiophen-2-yl)sulfonyl)acetamide]", "IC50": "~197 µM and 197 µM"}
{"smiles": "CC(=O)NS(=O)(=O)c1ccc(-c2ccc(Cl)c(Cl)c2)s1", "note": "[Compound 4c]", "IC50": "~121 µM and 121 µM"}
{"smiles": "CC(=O)NS(=O)(=O)c1ccc(-c2ccc(C)cc2)s1", "note": "[Compound 4d]", "IC50": "738 µM"}
{"molecular_target": "Jack bean urease enzyme (Canavalia ensiformis, UniProt P07374)", "experiment": "biochemical", "format": "biochemical", "details": "IC50, urease, Table 6 series (4e–g), pH 6.8", "protocol": "as §1, §2, §3"}
{"smiles": "CC(=O)NS(=O)(=O)c1ccc(-c2cc(C)cc(C)c2)s1", "note": "[Compound 4e]", "IC50": "57.9 µM"}
{"smiles": "CC(=O)NS(=O)(=O)c1ccc(-c2ccc(C)s2)s1", "note": "[Compound 4f]", "IC50": "~56.7 µM and 56.7 µM"}
{"smiles": "CC(=O)NS(=O)(=O)c1ccc(-c2ccc(Cl)cc2)s1", "note": "[Compound 4g]", "IC50": "73.8 µM"}
{"molecular_target": "Jack bean urease enzyme (Canavalia ensiformis, UniProt P07374)", "experiment": "biochemical", "format": "biochemical", "details": "urease inhibition at 15 µg/mL, pH 6.8", "protocol": "as §1, §2, §3", "units": {"Percent urease inhibition": "%"}}
{"smiles": "CC(=O)NS(=O)(=O)c1ccc(-c2cc(C)cc(C)c2)s1", "note": "[Compound 4e]", "Percent urease inhibition": "44.59 ± 0.14"}
{"smiles": "CC(=O)NS(=O)(=O)c1ccc(-c2ccc(C)s2)s1", "note": "[Compound 4f]", "Percent urease inhibition": "42.44 ± 0.11"}
{"smiles": "CC(=O)NS(=O)(=O)c1ccc(-c2ccc(Cl)cc2)s1", "note": "[Compound 4g]", "Percent urease inhibition": "46.23 ± 0.11"}
{"smiles": "NC(N)=S", "note": "[Standard, Thiourea, reference compound]", "Percent urease inhibition": "47.1 ± 0.31"}
{"molecular_target": "Jack bean urease enzyme (Canavalia ensiformis, UniProt P07374)", "experiment": "biochemical", "format": "biochemical", "details": "urease inhibition at 40 µg/mL, pH 6.8", "protocol": "as §1, §2, §3", "units": {"Percent urease inhibition": "%"}}
{"smiles": "CC(=O)NS(=O)(=O)c1ccc(-c2cc(C)cc(C)c2)s1", "note": "[Compound 4e]", "Percent urease inhibition": "91.21 ± 0.81"}
{"smiles": "CC(=O)NS(=O)(=O)c1ccc(-c2ccc(C)s2)s1", "note": "[Compound 4f]", "Percent urease inhibition": "92.12 ± 0.21"}
{"smiles": "CC(=O)NS(=O)(=O)c1ccc(-c2ccc(Cl)cc2)s1", "note": "[Compound 4g]", "Percent urease inhibition": "90.97 ± 0.18"}
{"smiles": "NC(N)=S", "note": "[Standard, Thiourea, reference compound]", "Percent urease inhibition": "65 ± 0.01"}
{"molecular_target": "Jack bean urease enzyme (Canavalia ensiformis, UniProt P07374)", "experiment": "biochemical", "format": "biochemical", "details": "urease inhibition at 50 µg/mL, pH 6.8", "protocol": "as §1, §2, §3", "units": {"Percent urease inhibition": "%"}}
{"smiles": "CC(=O)NS(=O)(=O)c1ccc(-c2ccccc2)s1", "note": "[Compound 4a]", "Percent urease inhibition": "67.56 ± 0.007"}
{"smiles": "CC(=O)NS(=O)(=O)c1ccc(-c2cc(C(F)(F)F)cc(C(F)(F)F)c2)s1", "note": "[Compound 4b, N-((5-(3,5-Bis(trifluoromethyl)phenyl)thiophen-2-yl)sulfonyl)acetamide]", "Percent urease inhibition": "29.98 ± 0.034"}
{"smiles": "CC(=O)NS(=O)(=O)c1ccc(-c2ccc(Cl)c(Cl)c2)s1", "note": "[Compound 4c]", "Percent urease inhibition": "54.4 ± 0.002"}
{"smiles": "CC(=O)NS(=O)(=O)c1ccc(-c2ccc(C)cc2)s1", "note": "[Compound 4d]", "Percent urease inhibition": "13.34 ± 0.007"}
{"smiles": "NC(N)=S", "note": "[Standard, Thiourea, reference compound]", "Percent urease inhibition": "60 ± 0.032"}
{"molecular_target": "Jack bean urease enzyme (Canavalia ensiformis, UniProt P07374)", "experiment": "biochemical", "format": "biochemical", "details": "urease inhibition at 80 µg/mL, pH 6.8", "protocol": "as §1, §2, §3", "units": {"Percent urease inhibition": "%"}}
{"smiles": "CC(=O)NS(=O)(=O)c1ccc(-c2cc(C)cc(C)c2)s1", "note": "[Compound 4e]", "Percent urease inhibition": "92.88 ± 0.14"}
{"smiles": "CC(=O)NS(=O)(=O)c1ccc(-c2ccc(C)s2)s1", "note": "[Compound 4f]", "Percent urease inhibition": "94.66 ± 0.11"}
{"smiles": "CC(=O)NS(=O)(=O)c1ccc(-c2ccc(Cl)cc2)s1", "note": "[Compound 4g]", "Percent urease inhibition": "68 ± 0.02"}
{"molecular_target": "Jack bean urease enzyme (Canavalia ensiformis, UniProt P07374)", "experiment": "biochemical", "format": "biochemical", "details": "urease inhibition at 250 µg/mL, pH 6.8", "protocol": "as §1, §2, §3", "units": {"Percent urease inhibition": "%"}}
{"smiles": "CC(=O)NS(=O)(=O)c1ccc(-c2ccccc2)s1", "note": "[Compound 4a]", "Percent urease inhibition": "89 ± 0.01"}
{"smiles": "CC(=O)NS(=O)(=O)c1ccc(-c2cc(C(F)(F)F)cc(C(F)(F)F)c2)s1", "note": "[Compound 4b, N-((5-(3,5-Bis(trifluoromethyl)phenyl)thiophen-2-yl)sulfonyl)acetamide]", "Percent urease inhibition": "56 ± 0.006"}
{"smiles": "CC(=O)NS(=O)(=O)c1ccc(-c2ccc(Cl)c(Cl)c2)s1", "note": "[Compound 4c]", "Percent urease inhibition": "78 ± 0.003"}
{"smiles": "CC(=O)NS(=O)(=O)c1ccc(-c2ccc(C)cc2)s1", "note": "[Compound 4d]", "Percent urease inhibition": "54 ± 0.004"}
{"smiles": "NC(N)=S", "note": "[Standard, Thiourea, reference compound]", "Percent urease inhibition": "95 ± 0.09"}
{"molecular_target": "Jack bean urease enzyme (Canavalia ensiformis, UniProt P07374)", "experiment": "biochemical", "format": "biochemical", "details": "urease, Table 5 series (4a–d), pH 6.8", "protocol": "as §1, §2, §3", "units": {"IC50": "µg/mL"}}
{"smiles": "NC(N)=S", "note": "[Standard, Thiourea, reference compound]", "IC50": "43 ± 0.38"}
{"molecular_target": "Jack bean urease enzyme (Canavalia ensiformis, UniProt P07374)", "experiment": "biochemical", "format": "biochemical", "details": "urease, Table 6 series (4e–g), pH 6.8", "protocol": "as §1, §2, §3", "units": {"IC50": "µg/mL"}}
{"smiles": "NC(N)=S", "note": "[Standard, Thiourea, reference compound]", "IC50": 23.3}
{"system": "not given", "experiment": "not given", "details": "not given", "units": {"melting point": "°C"}}
{"smiles": "CC(=O)NS(=O)(=O)c1ccc(-c2ccccc2)s1", "note": "[Compound 4a]", "melting point": "158 to 160"}
{"smiles": "CC(=O)NS(=O)(=O)c1ccc(-c2cc(C(F)(F)F)cc(C(F)(F)F)c2)s1", "note": "[Compound 4b, N-((5-(3,5-Bis(trifluoromethyl)phenyl)thiophen-2-yl)sulfonyl)acetamide]", "melting point": 168}
{"smiles": "CC(=O)NS(=O)(=O)c1ccc(-c2ccc(Cl)c(Cl)c2)s1", "note": "[Compound 4c]", "melting point": "148 to 150"}
{"smiles": "CC(=O)NS(=O)(=O)c1ccc(-c2ccc(C)cc2)s1", "note": "[Compound 4d]", "melting point": "161 to 163"}
{"smiles": "CC(=O)NS(=O)(=O)c1ccc(-c2cc(C)cc(C)c2)s1", "note": "[Compound 4e]", "melting point": "148 to 149"}
{"smiles": "CC(=O)NS(=O)(=O)c1ccc(-c2ccc(C)s2)s1", "note": "[Compound 4f]", "melting point": "167 to 168.4"}
{"smiles": "CC(=O)NS(=O)(=O)c1ccc(-c2ccc(Cl)cc2)s1", "note": "[Compound 4g]", "melting point": "167 to 170"}
